≈ marks a conversion by molar mass, not a printed value.
Experiments:
Format in all cases: physicochemical
[1] = Solubility of bilastine and mometasone furoate monohydrate in formulations with HPBCD 12.5 to 100 mg/mL at pH 4.3, 4.6, 4.9 (Example 3); conditions: for solubility: thermodynamic from solid
Experimental: (§1) HPLC measurements were conducted using a HPLC-HCLASS Chromatographic System with PDA or UV-VIS detector equipped with a Xbridge Shield RP18 3.5 μm […] Column. Mobile phases were ammonium bicarbonate (10 mM pH 9, FLUKA), acetonitrile (FISCHER) and methanol ([…]). Samples were submitted to Acrodisc 32 mm Sryinge Filters with 1.2 μm Supor Membrane, Batch: 18-1077 (PALL).
Six different formulations (with mometasone furoate monohydrate and the rest of excipients as defined in example 2) were prepared (see table below). The six formulations had amounts of HPBCD from 12.5 to 100 mg/mL. Then, in each of them an excessive amount of bilastine was added and the maximum solubility was tested. Furthermore, the percentage of the mometasone furoate dissolved was also tested. All the measurements were conducted at time 0.

[2] = Solubility of bilastine and mometasone furoate monohydrate in Kolliphor RH40 formulations (Example 4)
Experimental: To this end, aqueous formulations of Kolliphor RH40 at concentrations 0, 5, 15, 25 and 50 mg/mL and at pH values of 3.7, 4.0, 4.3 and 4.6 were prepared.
Additionally, 0.5 mg/mL of mometasone furoate monohydrate was added to each formulation. The influence of Kolliphor RH40 in bilastine solubility is represented in FIG. 3 in graphs A and B therein. It is shown that, at pH values above 4.3, Kolliphor RH40 at a concentration of 50 mg/mL is insufficient in solubilizing 8 mg/mL of Bilastine (FIG. 3 in graph A therein. In addition, at the concentration of 50 mg/mL and pH of 4.3, Kolliphor RH40 solubilizes more than 10% of the added mometasone furoate monohydrate (FIG. 3 in graph B therein.

[3] = Solubility of bilastine with α-cyclodextrin (FIG. 2); conditions: aqueous composition with α-cyclodextrin, aqueous with cosolvent or surfactant or cyclodextrin; 5 wt. % α-cyclodextrine instead of HPBCD, pH 4.5, FIG. 2
[4] = Solubility of bilastine in water; conditions: solubility depends on the pH
[5] = Stability of formulation with Kolliphor RH40 in stability chambers (Example 5); conditions: Kolliphor RH40 50 mg/mL formulation
Experimental: as §1
In the formulation of the present example, sorbitan monooleate acts as an antifoam agent. A batch manufactured according to the table above was prepared, packaged and placed in stability chambers wherein the conditions were 25° C./40% RH and 40° C./25% RH for the duration of 3 months.

[6] = Mometasone impurities under forced stability conditions, increasing HPBCD (Example 7); conditions: pH 4.6, 50° C., 3 months
Experimental: The percentage of Mometasone was calculated-using the following formula: […]
The percentage of Mometasone degradation products was calculated using the following formula: […]
To evaluate the influence that the cyclodextrin HPBCD had on the impurities of mometasone, formulations similar to the one described in example 1 (see table therein) were studied at pH 4.6 for increasing cyclodextrin concentrations of from 25 to 95 mg/mL. The formulations were submitted to forced stability conditions at 50° C. for a 3-month period. The results were obtained from HPLC measurements.

[7] = Stability of formulas with HPBCD in stability chambers (Example 6); conditions: HPBCD 25 mg/mL
Experimental: as §1
The three formulas (bilastine at a concentration of 2, 4 and 8 mg/mL) were placed in stability chambers wherein the conditions were 25° C./40% RH and 40° C./25% RH for the duration of 6 or 12 months.

CCOCCn1c(C2CCN(CCc3ccc(C(C)(C)C(=O)O)cc3)CC2)nc2ccccc21 [Bilastine, 2-[4-(2-{4-[1-(2-ethoxyethyl)-1H-benzimidazol-2-yl]-1-piperidinyl}ethyl)phenyl]-2-methylpropanoic acid]
solubility ([1]; aqueous with cosolvent or surfactant or cyclodextrin): ≥ 8000 µg/mL | solubility ([1]; pH 4.6, aqueous with cosolvent or surfactant or cyclodextrin): ~10000 µg/mL (≈ 21.6 mM) | solubility ([2]; aqueous with cosolvent or surfactant or cyclodextrin, thermodynamic from solid): < 8000 µg/mL | solubility [3]: < 1000 µg/mL | solubility in water [4]: slightly soluble

C[C@@H]1C[C@H]2[C@@H]3CCC4=CC(=O)C=C[C@]4(C)[C@@]3(Cl)[C@@H](O)C[C@]2(C)[C@@]1(OC(=O)c1ccco1)C(=O)CCl.O [Mometasone Furoate monohydrate, Mometasone furoate monohydrate]
Total degradation products % w/w ([5]; 25° C./40% RH, 3 months): 0.31% w/w | Total degradation products % w/w ([5]; 40° C./25% RH, 3 months): 0.33% w/w | Total degradation products % w/w ([5]; T0): 0.15% w/w | Dissolved mometasone (%) ([6]; HPBCD 25 mg/mL): 0.7% | Mometasone impurities (%) ([6]; HPBCD 25 mg/mL): 0.2% | Dissolved mometasone (%) ([6]; HPBCD 50 mg/mL): 3.0% | Mometasone impurities (%) ([6]; HPBCD 50 mg/mL): 0.7% | Dissolved mometasone (%) ([6]; HPBCD 65 mg/mL): 5.2% | Mometasone impurities (%) ([6]; HPBCD 65 mg/mL): 1.0% | Dissolved mometasone (%) ([6]; HPBCD 85 mg/mL): 7.2% | Mometasone impurities (%) ([6]; HPBCD 85 mg/mL): 1.3% | Dissolved mometasone (%) ([6]; HPBCD 95 mg/mL): 10.5% | Mometasone impurities (%) ([6]; HPBCD 95 mg/mL): 1.9% | solubility of mometasone furoate ([1]; HPBCD 75 mg/ml (7.5 wt. %), FIG. 1 graph B): around 4 mg/ml | Total degradation products % w/w ([7]; formula Bilastine 2 mg/mL, 25° C. 40% RH 9 months): 0.05% w/w | Total degradation products % w/w ([7]; formula Bilastine 2 mg/mL, 25° C. 40% RH 12 months): 0.05% w/w | Total degradation products % w/w ([7]; formula Bilastine 2 mg/mL, 40° C. 25% RH 3 months): 0.15% w/w | Total degradation products % w/w ([7]; formula Bilastine 2 mg/mL, 40° C. 25% RH 6 months): 0.20% w/w | Total degradation products % w/w ([7]; formula Bilastine 2 mg/mL, T0): 0.05% w/w | Total degradation products % w/w ([7]; formula Bilastine 4 mg/mL, 25° C. 40% RH 9 months): 0.05% w/w | Total degradation products % w/w ([7]; formula Bilastine 4 mg/mL, 25° C. 40% RH 12 months): 0.05% w/w | Total degradation products % w/w ([7]; formula Bilastine 4 mg/mL, 40° C. 25% RH 3 months): 0.14% w/w | Total degradation products % w/w ([7]; formula Bilastine 4 mg/mL, 40° C. 25% RH 6 months): 0.18% w/w | Total degradation products % w/w ([7]; formula Bilastine 4 mg/mL, T0): 0.05% w/w | Total degradation products % w/w ([7]; formula Bilastine 8 mg/mL, 25° C. 40% RH 9 months): 0.05% w/w | Total degradation products % w/w ([7]; formula Bilastine 8 mg/mL, 25° C. 40% RH 12 months): 0.05% w/w | Total degradation products % w/w ([7]; formula Bilastine 8 mg/mL, 40° C. 25% RH 3 months): 0.14% w/w | Total degradation products % w/w ([7]; formula Bilastine 8 mg/mL, 40° C. 25% RH 6 months): 0.17% w/w | Total degradation products % w/w ([7]; formula Bilastine 8 mg/mL, T0): 0.05% w/w | added mometasone furoate monohydrate solubilized ([2]; Kolliphor RH40 50 mg/mL, pH 4.3, 0.5 mg/mL added, FIG. 3 graph B): more than 10%
